Experimental data: patent US20260217706A1, “HETEROCYCLIC COMPOUNDS, PREPARATION METHOD THEREFOR AND USE THEREOF” (GUANGZHOU YUFAN NANTU BIOTECHNOLOGIES CO., LTD, priority 2023, published 2026)

What follows are molecules tested against CBL-B protein (Homo sapiens, UniProt Q13191) (assay: CBL-B binding experiment (Streptavidin-Tb cryptate / Ligand L1 displacement)). Conditions: 8 nM CBL-B protein, 25° C., 60 minutes; Ki=Relative IC50/2.
Method in brief: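 Compounds in a 10-point DMSO series met 8 nM CBL-B protein in HEPES pH 7.5/NaCl/Triton/TCEP/BSA buffer at 25° C. for 60 min. A further 60 min at room temperature preceded the luminescence read, normalised to no-protein and DMSO wells. Ki was taken as relative IC50 divided by 2.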

CBL-B protein, sequence (Q13191 whole entry): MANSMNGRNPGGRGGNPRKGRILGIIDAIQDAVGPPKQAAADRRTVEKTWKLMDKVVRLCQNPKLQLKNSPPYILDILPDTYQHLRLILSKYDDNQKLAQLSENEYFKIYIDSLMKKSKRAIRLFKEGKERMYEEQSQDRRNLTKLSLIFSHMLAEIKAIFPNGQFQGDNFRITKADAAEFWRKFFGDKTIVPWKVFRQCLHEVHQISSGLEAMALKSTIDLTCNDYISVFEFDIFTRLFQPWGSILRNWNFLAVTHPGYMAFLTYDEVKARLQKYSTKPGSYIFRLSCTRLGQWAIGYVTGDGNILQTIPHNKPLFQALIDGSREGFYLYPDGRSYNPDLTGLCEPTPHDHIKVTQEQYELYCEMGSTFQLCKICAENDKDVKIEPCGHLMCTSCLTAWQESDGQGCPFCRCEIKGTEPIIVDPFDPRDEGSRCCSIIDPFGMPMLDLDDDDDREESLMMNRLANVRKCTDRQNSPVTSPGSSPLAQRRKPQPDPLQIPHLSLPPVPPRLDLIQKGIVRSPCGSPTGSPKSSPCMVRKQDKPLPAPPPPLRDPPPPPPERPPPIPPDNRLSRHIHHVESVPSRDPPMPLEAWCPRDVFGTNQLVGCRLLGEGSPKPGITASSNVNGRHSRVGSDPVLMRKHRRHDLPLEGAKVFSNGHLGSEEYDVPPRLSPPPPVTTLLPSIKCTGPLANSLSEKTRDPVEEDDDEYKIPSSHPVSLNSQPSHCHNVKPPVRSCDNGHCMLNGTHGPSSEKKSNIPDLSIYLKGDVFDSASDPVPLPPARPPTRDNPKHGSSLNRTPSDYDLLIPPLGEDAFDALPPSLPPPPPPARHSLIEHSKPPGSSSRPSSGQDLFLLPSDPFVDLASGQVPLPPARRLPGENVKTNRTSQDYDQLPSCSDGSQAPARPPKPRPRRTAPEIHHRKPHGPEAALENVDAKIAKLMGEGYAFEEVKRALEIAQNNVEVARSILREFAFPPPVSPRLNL

Which Ki does the source give for `Cn1cnnc1C1(c2cccc(-n3cc(C(F)(F)F)c4cc(CN5CCCC(C(F)F)C5)[nH]c4c3=O)c2)CCC1` (racemic) [Compound T114, 6-[3-[1-(4-methyl-1,2,4-triazol-3-yl)cyclobutyl]phenyl]-2-[[rac-(3S)-3-(difluoromethyl)-1-piperidyl]methyl]-4-(trifluoromethyl)-1H-pyrrolo[2,3-c]pyridin-7-one] here?
Its Ki is less than 50 nM.

For `CC1CC(c2cc(C(=O)O)cc(-n3cc(C(F)(F)F)c4cc(CN5CCC[C@H](C)C5)[nH]c4c3=O)c2)(c2nncn2C)C1` (stereo partly drawn) [Compound T128, 3-[3-methyl-1-(4-methyl-1,2,4-triazol-3-yl)cyclobutyl]-5-[2-[[(3S)-3-methyl-1-piperidyl]methyl]-7-oxo-4-(trifluoromethyl)-1H-pyrrolo[2,3-c]pyridin-6-yl]benzoic acid], which Ki is on record?
The Ki was less than 50 nM.

With `C[C@H]1CCCN(Cc2cc3c(C(F)(F)F)cn(-c4cccc(C5(c6nncn6C)COC5)c4)c(=O)c3[nH]2)C1` [Compound T129, (S)-6-(3-(3-(4-methyl-4H-1,2,4-triazol-3-yl)oxetan-3-yl)phenyl)-2-((3-methylpiperidin-1-yl)methyl)-4-(trifluoromethyl)-1,6-dihydro-7H-pyrrolo[2,3-c]pyridin-7-one] as the molecule, how does the Ki read?
The Ki was less than 50 nM.

For `C[C@@H]1CN(Cc2cc3c(C(F)(F)F)cn(-c4cccc([C@]5(c6nncn6C)C[C@@H](C)C5)c4)c(=O)c3[nH]2)CCN1C(=O)OC(C)(C)C` [Compound T141, tert-butyl (2R)-2-methyl-4-[[6-[3-[3-methyl-1-(4-methyl-1,2,4-triazol-3-yl)cyclobutyl]phenyl]-7-oxo-4-(trifluoromethyl)-1H-pyrrolo[2,3-c]pyridin-2-yl]methyl]piperazine-1-carboxylate], which Ki is on record?
Its Ki is less than 50 nM.

For `C[C@@H]1CN(Cc2cc3c(C(F)(F)F)cn(-c4cccc([C@]5(c6nncn6C)C[C@@H](C)C5)c4)c(=O)c3[nH]2)CCN1` [Compound T142, 6-[3-[3-methyl-1-(4-methyl-1,2,4-triazol-3-yl)cyclobutyl]phenyl]-2-[[(3R)-3-methylpiperazin-1-yl]methyl]-4-(trifluoromethyl)-1H-pyrrolo[2,3-c]pyridin-7-one], which Ki is on record?
The Ki was less than 50 nM.

With `CO[C@H]1C[C@@](c2cccc(-n3cc(C(F)(F)F)c4cc(CN5CC6CC6C5)[nH]c4c3=O)c2)(c2nncn2C)C1` (some centres unmarked) [Compound T143, 2-((3-azabicyclo[3.1.0]hexan-3-yl)methyl)-6-(3-((1s,3s)-3-methoxy-1-(4-methyl-4H-1,2,4-triazol-3-yl)cyclobutyl)phenyl)-4-(trifluoromethyl)-1,6-dihydro-7H-pyrrolo[2,3-c]pyridin-7-one] as the molecule, how does the Ki read?
The Ki was less than 50 nM.

For `CO[C@H]1C[C@](c2cccc(-n3cc(C(F)(F)F)c4cc(CN5CC6CC6C5)[nH]c4c3=O)c2)(c2nncn2C)C1` (some centres unmarked) [Compound T144, 2-((3-azabicyclo[3.1.0]hexan-3-yl)methyl)-6-(3-((1r,3r)-3-methoxy-1-(4-methyl-4H-1,2,4-triazol-3-yl)cyclobutyl)phenyl)-4-(trifluoromethyl)-1,6-dihydro-7H-pyrrolo[2,3-c]pyridin-7-one], which Ki is on record?
Its Ki is less than 50 nM.

With `CO[C@H]1C[C@](c2cccc(-n3cc(C(F)(F)F)c4cc(CN5CC6CCC(C6)C5)[nH]c4c3=O)c2)(c2nncn2C)C1` [Compound T146, 2-((3-azabicyclo[3.2.1]octan-3-yl)methyl)-6-(3-((1r,3r)-3-methoxy-1-(4-methyl-4H-1,2,4-triazol-3-yl)cyclobutyl)phenyl)-4-(trifluoromethyl)-1,6-dihydro-7H-pyrrolo[2,3-c]pyridin-7-one] as the molecule, how does the Ki read?
The Ki was less than 50 nM.

For `CO[C@H]1C[C@](c2cccc(-n3cc(C(F)(F)F)c4cc(CN5CCCC6(CC6)C5)[nH]c4c3=O)c2)(c2nncn2C)C1` [Compound T148, 2-((5-azaspiro[2.5]octan-5-yl)methyl)-6-(3-((1r,3r)-3-methoxy-1-(4-methyl-4H-1,2,4-triazol-3-yl)cyclobutyl)phenyl)-4-(trifluoromethyl)-1,6-dihydro-7H-pyrrolo[2,3-c]pyridin-7-one], which Ki is on record?
The Ki was less than 50 nM.

`CCN(Cc1cc2c(C(F)(F)F)cn(-c3cccc([C@]4(c5nncn5C)C[C@H](OC)C4)c3)c(=O)c2[nH]1)CC(C)C` [Compound T150, 2-((ethyl(isobutyl)amino)methyl)-6-(3-((1r,3r)-3-methoxy-1-(4-methyl-4H-1,2,4-triazol-3-yl)cyclobutyl)phenyl)-4-(trifluoromethyl)-1,6-dihydro-7H-pyrrolo[2,3-c]pyridin-7-one] was tested. Which Ki did it give?
The Ki was less than 50 nM.

Which Ki does the source give for `CO[C@H]1C[C@@](c2cccc(-n3cc(C(F)(F)F)c4cc(CNCCC5CC5)[nH]c4c3=O)c2)(c2nncn2C)C1` [Compound T153, 2-(((2-cyclopropylethyl)amino)methyl)-6-(3-((1s,3s)-3-methoxy-1-(4-methyl-4H-1,2,4-triazol-3-yl)cyclobutyl)phenyl)-4-(trifluoromethyl)-1,6-dihydro-7H-pyrrolo[2,3-c]pyridin-7-one] here?
Its Ki is less than 50 nM.

For `CO[C@H]1C[C@@](c2cccc(-n3cc(C(F)(F)F)c4cc(CN5CCCC(C(F)F)C5)[nH]c4c3=O)c2)(c2nncn2C)C1` (some centres unmarked) [Compound T155, 2-((3-(difluoromethyl)piperidin-1-yl)methyl)-6-(3-((1s,3s)-3-methoxy-1-(4-methyl-4H-1,2,4-triazol-3-yl)cyclobutyl)phenyl)-4-(trifluoromethyl)-1,6-dihydro-7H-pyrrolo[2,3-c]pyridin-7-one], which Ki is on record?
The Ki was less than 50 nM.

For `CCN(Cc1cc2c(C(F)(F)F)cn(-c3cccc([C@]4(c5nncn5C)C[C@H](OC)C4)c3)c(=O)c2[nH]1)C(C)C` [Compound T193], which Ki is on record?
Its Ki is less than 50 nM.

What follows are molecules tested on anti-CD3 activated human PBMCs (assay: Effect of compounds on the level of IL-2 secretion by anti-CD3 activated human PBMCs (IL-2 ELISA)). Conditions: compound concentration at which fold change in IL-2 = 5; hPBMCs, CD3 antibody 2 μg/mL, 48 h, compound from 3 μM.
Format: cell-based
Procedure: 2. Inoculate the resuspended cells into a 96-well cell culture plate at 200 ul/well of cell suspension, and incubate in a 37° C. cell incubator for 1 h;
3. Adjust the compound concentration with DMSO, starting at a final concentration of 3 μM, and perform a 3-fold dilution sequentially for 10 concentration gradients, with an additional DMSO control well set up; and
4. Adjust the CD3 antibody to an appropriate concentration to achieve a final concentration of 2 μg/mL, mix thoroughly, and incubate in a 37° C. cell incubator for 48h.
5. After 48 h, centrifuge at 1500 rpm for 5 min to collect the supernatant of the culture medium for the human IL-2 ELISA test.
The OD values obtained from the ELISA test are converted into the fold change (FC) in IL-2 concentration. […] The EC50 is calculated using GraphPad Prism. When the fold change=5, the corresponding compound concentration is CFC=5 (in nM).

`Cn1cnnc1C1(c2cccc(-n3cc(C(F)(F)F)c4cc(CN5CCCC(C(F)F)C5)[nH]c4c3=O)c2)CCC1` (racemic) [Compound T114, 6-[3-[1-(4-methyl-1,2,4-triazol-3-yl)cyclobutyl]phenyl]-2-[[rac-(3S)-3-(difluoromethyl)-1-piperidyl]methyl]-4-(trifluoromethyl)-1H-pyrrolo[2,3-c]pyridin-7-one] was tested. Which “IL-2 CFC=5/nM” value did it give?
The value was less than 500 nM.

How did the “IL-2 CFC=5/nM” value turn out when `C[C@H]1CCCN(Cc2cc3c(C4CC4)cn(-c4cccc([C@]5(c6nncn6C)C[C@@H](C)C5)c4)c(=O)c3[nH]2)C1` [Compound T011, 4-cyclopropyl-6-(3-((1s,3R)-3-methyl-1-(4-methyl-4H-1,2,4-triazol-3-yl)cyclobutyl)phenyl)-2-(((S)-3-methylpiperidin-1-yl)methyl)-1,6-dihydro-7H-pyrrolo[2,3-c]pyridin-7-one] was run?
Its value is less than 500 nM.

For `C[C@H]1CCCN(Cc2cc3c(C4CC4)cn(-c4cccc([C@]5(c6nncn6C)C[C@H](C)C5)c4)c(=O)c3[nH]2)C1` [Compound T014, 4-cyclopropyl-6-(3-((1r,3S)-3-methyl-1-(4-methyl-4H-1,2,4-triazol-3-yl)cyclobutyl)phenyl)-2-(((S)-3-methylpiperidin-1-yl)methyl)-1,6-dihydro-7H-pyrrolo[2,3-c]pyridin-7-one], which “IL-2 CFC=5/nM” value is on record?
Its value is less than 500 nM.

`Cn1cnnc1C1(c2cccc(-n3cc(C(F)(F)F)c4cc(CN5CC[C@H](F)C5)[nH]c4c3=O)c2)CCC1` [Compound T020, 2-[[(3S)-3-fluoropyrrolidin-1-yl]methyl]-6-[3-[1-(4-methyl-1,2,4-triazol-3-yl)cyclobutyl]phenyl]-4-(trifluoromethyl)-1H-pyrrolo[2,3-c]pyridin-7-one] was tested. Which “IL-2 CFC=5/nM” value did it give?
The value was less than 500 nM.

`Cn1cnnc1C1(c2cccc(-n3cc(C(F)(F)F)c4cc(CN5CC[C@@H](F)C5)[nH]c4c3=O)c2)CCC1` [Compound T021, 2-[[(3R)-3-fluoropyrrolidin-1-yl]methyl]-6-[3-[1-(4-methyl-1,2,4-triazol-3-yl)cyclobutyl]phenyl]-4-(trifluoromethyl)-1H-pyrrolo[2,3-c]pyridin-7-one] was tested. Which “IL-2 CFC=5/nM” value did it give?
Its value is less than 500 nM.

For `C[C@H]1CCCN(Cc2cc3c(C(F)(F)F)cn(-c4cccc([C@]5(c6nncn6C)C[C@H](C#N)C5)c4)c(=O)c3[nH]2)C1` [Compound T136, (1S,3r)-3-(4-methyl-4H-1,2,4-triazol-3-yl)-3-(3-(2-(((S)-3-methylpiperidin-1-yl)methyl)-7-oxo-4-(trifluoromethyl)-1,7-dihydro-6H-pyrrolo[2,3-c]pyridin-6-yl)phenyl)cyclobutane-1-carbonitrile], which “IL-2 CFC=5/nM” value is on record?
Its value is less than 500 nM.

How did the “IL-2 CFC=5/nM” value turn out when `C[C@H]1CCCN(Cc2cc3c(C(F)(F)F)cn(-c4cccc([C@]5(c6nncn6C)C[C@@H](C#N)C5)c4)c(=O)c3[nH]2)C1` [Compound T137, (1R,3s)-3-(4-methyl-4H-1,2,4-triazol-3-yl)-3-(3-(2-(((S)-3-methylpiperidin-1-yl)methyl)-7-oxo-4-(trifluoromethyl)-1,7-dihydro-6H-pyrrolo[2,3-c]pyridin-6-yl)phenyl)cyclobutane-1-carbonitrile] was run?
The value was less than 500 nM.

`C[C@H]1CCCN(Cc2cc3c(C(F)(F)F)cn(-c4cccc([C@]5(c6nncn6C)C[C@@H](CC#N)C5)c4)c(=O)c3[nH]2)C1` [Compound T139, 2-((1R,3s)-3-(4-methyl-4H-1,2,4-triazol-3-yl)-3-(3-(2-(((S)-3-methylpiperidin-1-yl)methyl)-7-oxo-4-(trifluoromethyl)-1,7-dihydro-6H-pyrrolo[2,3-c]pyridin-6-yl)phenyl)cyclobutyl)acetonitrile] was tested. Which “IL-2 CFC=5/nM” value did it give?
Its value is less than 500 nM.

Which “IL-2 CFC=5/nM” value does the source give for `CO[C@H]1C[C@@](c2cccc(-n3cc(C(F)(F)F)c4cc(CN5CCC[C@H]6C[C@H]65)[nH]c4c3=O)c2)(c2nncn2C)C1` [Compound T183] here?
Its value is less than 500 nM.

How did the “IL-2 CFC=5/nM” value turn out when `CO[C@H]1C[C@](c2cccc(-n3cc(C(F)(F)F)c4cc(CN5CCC[C@H]6C[C@H]65)[nH]c4c3=O)c2)(c2nncn2C)C1` [Compound T185] was run?
The value was less than 500 nM.
